In ChEMBL document CHEMBL4831503, “Design, synthesis, in vitro and in vivo anti-respiratory syncytial virus (RSV) activity of novel oxizine fused benzimidazole derivatives” (Eur J Med Chem, 2021):
The source made the active and inactive calls. The rule behind the calls is not given here.

Columns and labels:
[1] = Cytotoxicity against human HEp-2 cells assessed as reduction in cell viability measured after 60 hrs by MTT assay; assay type: cell-based
[2] = Selectivity index, ratio of CC50 for human HEp-2 cells to EC50 for Respiratory syncytial virus infected in human HEp-2 cells; assay type: toxicity, cell-based; conditions: read-out: Selectivity Index
[3] = system: Respiratory syncytial virus; assay: Antiviral activity against Respiratory syncytial virus infected in human HEp-2 cells incubated for 60 hrs by MTT assay; assay type: functional, organism-based; conditions: HEp-2, 60 h
[4] = system: Respiratory syncytial virus; assay: Antiviral activity against RSV infected in BALB/c mouse assessed as downregulation of TLR3 expression in lung tissue infected with RSV at 50 mg/kg/day measured after 2 to 6 days post infection by RT-PCR analysis; assay type: functional, organism-based; conditions: time 2-6 day
[5] = system: Respiratory syncytial virus; assay: Inhibition of RSV induced apoptosis in human HEp-2 cells assessed as reduction in cleaved caspase-3 expression measured after 60 hrs by Western blot analysis; assay type: functional, organism-based
[6] = system: Respiratory syncytial virus; assay: Inhibition of RSV induced apoptosis in human HEp-2 cells assessed as reduction in cleaved caspase-7 expression measured after 48 hrs by Western blot analysis; assay type: functional, organism-based
[7] = system: Respiratory syncytial virus; assay: Antiviral activity against RSV Long infected in BALB/c mouse assessed as improvement in lung congestion at 25 to 100 mg/kg/day observed on day 6 after infection by H and E staining based microscopic analysis; assay type: functional, organism-based; conditions: dose 25-100 mg/kg/day, time 6.0 day
[8] = Inhibition of RSV induced ROS production in human HEp-2 cells assessed as reduction in accumulation of ROS-positive cells at 25 uM measured after 36 hrs by DCHF-DA staining based flow cytometry analysis (reference value: 82.2%); assay type: functional, Respiratory syncytial virus; set-up: scale not given: the % may be the effect or the level left
[9] = system: Respiratory syncytial virus; assay: Inhibition of RSV induced apoptosis in human HEp-2 cells assessed as late apoptotic cells at 25 uM measured after 60 hrs by Annexin V-FITC/PI staining based flow cytometry analysis (reference value: 20.2%); assay type: functional; set-up: scale not given: the % may be the effect or the level left
[10] = Toxicity in BALB/c mouse infected with RSV-Long assessed as body weight loss at 50 mg/kg/day administered via gastric gavage once daily for 6 days; assay type: organism-based; conditions: in vivo, po, 144 h, time 6 day
[11] = system: Respiratory syncytial virus; assay: Antiviral activity against RSV infected in BALB/c mouse assessed as downregulation of IL-8 expression in lung tissue infected with RSV at 50 mg/kg/day measured after 2 to 6 days post infection by RT-PCR analysis; assay type: functional, organism-based; conditions: time 2-6 day
[12] = system: Respiratory syncytial virus; assay: Antiviral activity against RSV infected in BALB/c mouse assessed as downregulation of TNF-alpha expression in lung tissue infected with RSV at 50 mg/kg/day measured after 2 to 6 days post infection by RT-PCR analysis; assay type: functional, organism-based; conditions: time 2-6 day
[13] = system: Respiratory syncytial virus; assay: Antiviral activity against RSV infected in BALB/c mouse assessed as downregulation of IRF3 expression in lung tissue infected with RSV at 50 mg/kg/day measured after 2 to 4 days post infection by RT-PCR analysis; assay type: functional, organism-based; conditions: time 2-4 day
[14] = system: Respiratory syncytial virus; assay: Antiviral activity against RSV infected in BALB/c mouse assessed as downregulation of iNOS expression in lung tissue infected with RSV at 50 mg/kg/day measured after 2 to 6 days post infection by RT-PCR analysis; assay type: functional, organism-based; conditions: time 2-6 day
[15] = system: Respiratory syncytial virus; assay: Inhibition of RSV induced apoptosis in human HEp-2 cells assessed as reduction in cleaved caspase-9 expression measured after 48 hrs by Western blot analysis; assay type: functional, organism-based
[16] = system: Respiratory syncytial virus; assay: Antiviral activity against RSV infected in BALB/c mouse assessed as downregulation of IL-10 expression in lung tissue infected with RSV at 50 mg/kg/day measured after 2 to 6 days post infection by RT-PCR analysis; assay type: functional, organism-based; conditions: time 2-6 day
[17] = system: Respiratory syncytial virus; assay: Antiviral activity against RSV infected in human HEp-2 cells assessed as downregulation of RIG-1 expression at 25 uM treated 48 hpi and measured after 48 hrs by Western blot analysis; assay type: functional, organism-based
[18] = system: Respiratory syncytial virus; assay: Antiviral activity against RSV infected in BALB/c mouse assessed as inhibition of viral replication by measuring RSV-M gene expression in lung after 2 to 6 days post infection by RT-PCR analysis; assay type: functional, organism-based; conditions: time 2-6 day
[19] = system: Respiratory syncytial virus; assay: Inhibition of RSV induced apoptosis in human HEp-2 cells assessed as reduction in PARP cleavage measured after 48 hrs by Western blot analysis; assay type: functional, organism-based
[20] = system: Respiratory syncytial virus; assay: Antiviral activity against RSV infected in human HEp-2 cells assessed as downregulation of NF-kappaB expression at 25 uM treated 48 hpi and measured after 48 hrs by Western blot analysis; assay type: functional, organism-based
[21] = system: Respiratory syncytial virus; assay: Antiviral activity against RSV infected in BALB/c mouse assessed as downregulation of RIG-1 expression in lung tissue infected with RSV at 50 mg/kg/day measured after 2 days post infection by RT-PCR analysis; assay type: functional, organism-based; conditions: time 2.0 day
[22] = system: Respiratory syncytial virus; assay: Antiviral activity against RSV infected in BALB/c mouse assessed as downregulation of IL-6 expression in lung tissue infected with RSV at 50 mg/kg/day measured after 2 days post infection by RT-PCR analysis; assay type: functional, organism-based; conditions: time 2.0 day
[23] = system: Respiratory syncytial virus; assay: Antiviral activity against RSV Long infected in BALB/c mouse assessed as inhibition of alveolar infiltrates accumulation at 50 mg/kg/day observed on day 6 after infection by H and E staining based microscopic analysis; assay type: functional, organism-based; conditions: time 6.0 day
[24] = system: Respiratory syncytial virus; assay: Antiviral activity against RSV Long infected in BALB/c mouse assessed as reduction in lung tissue damage by measuring lung index at 50 mg/kg/day measured after 4 to 6 days of virus infection; assay type: functional, organism-based; conditions: time 4-6 day
[25] = system: Respiratory syncytial virus; assay: Inhibition of RSV induced apoptosis in human HEp-2 cells assessed as early apoptotic cells at 25 uM measured after 60 hrs by Annexin V-FITC/PI staining based flow cytometry analysis (reference value: 10.3%); assay type: functional; set-up: scale not given: the % may be the effect or the level left

Cc1cc2nc3n(c2cc1C)[C@H]1OC[C@@H](O)[C@H]1OC3
CC50 at 60 h [1]: 492 µM

Cc1ccc(S(=O)(=O)O[C@@H]2CO[C@H]3[C@@H]2OCc2nc4cc(Br)c(Br)cc4n23)cc1
CC50 at 60 h [1]: 87.5 µM
selectivity ratio [2]: 1.35
EC50 [3]: 64.7 µM

Cc1c(Br)cc2c(nc3n2[C@H]2OC[C@@H](OS(C)(=O)=O)[C@H]2OC3)c1Br
CC50 at 60 h [1]: 15.6 µM

COc1c(Br)cc2c(nc3n2[C@H]2OC[C@@H](O)[C@H]2OC3)c1Br
CC50 at 60 h [1]: 259 µM

O[C@@H]1CO[C@H]2[C@@H]1OCc1nc3cc(Cl)c(Cl)cc3n12
CC50 at 60 h [1]: 238 µM

Cc1ccc(S(=O)(=O)O[C@@H]2CO[C@H]3[C@@H]2OCc2nc4c(Br)c(C)c(Br)cc4n23)cc1
CC50 at 60 h [1]: 8.94 µM
selectivity ratio [2]: 5.68
EC50 [3]: 1.57 µM

O[C@@H]1CO[C@H]2[C@@H]1OCc1nc3cc(Br)c(Br)cc3n12
CC50 at 60 h [1]: 181 µM
selectivity ratio [2]: 5.67
EC50 [3]: 31.9 µM

COc1ccc2c(c1)nc1n2C[C@@H]([C@H](O)CO)OC1
CC50 at 60 h [1]: 366 µM

O[C@@H]1CO[C@H]2[C@@H]1OCc1nc3ccccc3n12
CC50 at 60 h [1]: 564 µM

CS(=O)(=O)O[C@@H]1CO[C@H]2[C@@H]1OCc1nc3cc(Br)c(Br)cc3n12
CC50 at 60 h [1]: 99.5 µM
selectivity ratio [2]: 1.13
EC50 [3]: 87.9 µM

NC(=O)c1ncn([C@@H]2O[C@H](CO)[C@@H](O)[C@H]2O)n1 [RIBAVIRIN]
Activity [4]: Active
inhibition [5]: Active
inhibition [6]: Active
Activity [7]: Active
Activity [8]: 62.7%
Activity [9]: 7.6%
Activity [10]: Toxic
Activity [11]: Active
CC50 at 60 h [1]: 418 µM
Activity [12]: Active
selectivity ratio [2]: 22.6
Activity [13]: Active
Activity [14]: Active
inhibition [15]: Active
Activity [16]: Active
Activity [17]: Active
Activity [18]: Active
inhibition [19]: Active
Activity [20]: Active
Activity [21]: inactive
EC50 [3]: 18.5 µM
Activity [22]: Active
Activity [23]: Active
Activity [24]: Active
Activity [25]: 0.3%

COc1ccc2c(nc3n2[C@H]2OC[C@@H](O)[C@H]2OC3)c1[N+](=O)[O-]
CC50 at 60 h [1]: 468 µM

Cc1c(Br)cc2nc3n(c2c1Br)[C@H]1OC[C@@H](OS(C)(=O)=O)[C@H]1OC3
CC50 at 60 h [1]: 23.7 µM
selectivity ratio [2]: 3.96
EC50 [3]: 5.98 µM

Cc1c(Br)cc2c(nc3n2[C@H]2OC[C@@H](O)[C@H]2OC3)c1Br
CC50 at 60 h [1]: 34.3 µM

COc1c(Cl)cc2c(nc3n2[C@H]2OC[C@@H](O)[C@H]2OC3)c1Cl
CC50 at 60 h [1]: 411 µM

[N-]=[N+]=N[C@H]1CO[C@H]2[C@@H]1OCc1nc3cc(Br)c(Br)cc3n12
CC50 at 60 h [1]: 77.4 µM

Cc1cc2nc3n(c2cc1C)C[C@@H]([C@H](O)CO)OC3
CC50 at 60 h [1]: 574 µM

OC[C@@H](O)[C@@H]1Cn2c(nc3cc(F)c(F)cc32)CO1
CC50 at 60 h [1]: 653 µM
selectivity ratio [2]: 10
EC50 [3]: 65.2 µM

Cc1c(Br)cc2nc3n(c2c1Br)[C@H]1OC[C@@H](OCc2ccccc2)[C@H]1OC3
CC50 at 60 h [1]: 115 µM
selectivity ratio [2]: 2.59
Activity [16]: Active
EC50 [3]: 44.5 µM

Cc1c(Br)cc2nc3n(c2c1Br)[C@H]1OC[C@H](N=[N+]=[N-])[C@H]1OC3
CC50 at 60 h [1]: 21.4 µM

COc1ccc2c(nc3n2[C@H]2OC[C@@H](O)[C@H]2OC3)c1N
CC50 at 60 h [1]: 109 µM
selectivity ratio [2]: 9.66
EC50 [3]: 11.3 µM

COc1ccc2c(c1)nc1n2[C@H]2OC[C@@H](O)[C@H]2OC1
CC50 at 60 h [1]: > 800 µM

O[C@@H]1CO[C@H]2[C@@H]1OCc1nc3cc(F)c(F)cc3n12
CC50 at 60 h [1]: 512 µM
EC50 [3]: > 400 µM

Cc1ccc(S(=O)(=O)O[C@@H]2CO[C@H]3[C@@H]2OCc2nc4cc(Br)c(C)c(Br)c4n23)cc1
CC50 at 60 h [1]: 88.6 µM
selectivity ratio [2]: 10.7
EC50 [3]: 8.28 µM

O[C@@H]1CO[C@H]2[C@@H]1OCc1nc3cc(Br)cc(Cl)c3n12
CC50 at 60 h [1]: > 800 µM
EC50 [3]: 86.2 µM

Cc1c(Br)cc2c(nc3n2[C@H]2OC[C@@H](OCc4ccccc4)[C@H]2OC3)c1Br
CC50 at 60 h [1]: 25.6 µM

OC[C@@H](O)[C@@H]1Cn2c(nc3ccccc32)CO1
CC50 at 60 h [1]: > 800 µM

Cc1c(Br)cc2c(nc3n2[C@H]2OC[C@H](N=[N+]=[N-])[C@H]2OC3)c1Br
CC50 at 60 h [1]: 33.1 µM
selectivity ratio [2]: 2.54
EC50 [3]: 13 µM
